According to patent US11980633B2, “Method for treating cancer using a combination of DNA-damaging agents and DNA-PK inhibitors” (Vertex Pharmaceuticals Incorporated, priority 2016, dated 2024):

Legend:
Assay type in all cases: cell-based
[1] = tested on: primary human tumors (NSCLC, SCLC, pancreatic, HCC, gastric, esophageal); assay: TCA assays overall: all combination treatments with Compound B-1
Description: (§1) In both studies, cell viability was assessed after 6 days in culture. Statistical analysis of the combination matrix was performed to assess whether synergy, additivity, or antagonism of the combination treatments were observed.
(§2) Materials: Primary patient samples (See Tables 16 and 17, below) were excised from mice when they reached 500 mg to 1000 mg in size and processed immediately, or after overnight shipment. Tumors were serially passaged by subcutaneous implantation of 50 mg to 150 mg fragments into the flanks of immunocompromised (nude) mice. Tumors were used within the first 5 or 7 passages.
Tumor Chemosensitivity Assay (TCA): Primary tumor samples were grown and serially passaged in immunocompromised mice. Tumors were mechanically dissociated into small fragments (1 mm to 2 mm) with scalpels in phosphate buffered saline (PBS or RPMI) and centrifuged at 200×g for 5 minutes at room temperature in 50 mL centrifuge tubes. Samples were resuspended in 10 mL of cell dissociation reagent and enzymatically digested with mechanical agitation for 1 to 3 hours at 37° C., 5% CO2 to a single cell suspension. Ten mL of complete RPMI-1640 media was added to the cell mixture and pipetted up and down 4 to 5 times. The mixture was then passed through a 70 μm or 100 μm mesh strainer to remove undigested tumor. The filtrate was then centrifuged 200×g for 5 minutes at room temperature and resuspended in 20 mL complete RPMI-1640. This cell suspension was slowly layered onto 20 mL of room temperature Histopaque and centrifuged at 400×g for 15 minutes at room temperature without a brake. The interface was transferred to a new 50 mL centrifuge tube and 15 mL of complete RPMI-1640 was added. This suspension was centrifuged at 200×g at room temperature, and the resulting pellet was resuspended in 10 mL of complete PC-1 media, except for pancreatic tumors in which case Pancreatic Medium was used. Cells were diluted in Trypan blue, and viable cells that excluded the dye were counted. Only the larger, tumor cells were included in the cell count. […]

[2] = tested on: primary human tumors (esophageal, gastric); assay: TCA: Compound B-1 with 5-FU, primary tumors
Description: as §1, §2
(§3) Tumor Chemosensitivity Assay (TCA): Primary tumor samples were grown and serially passaged in immunocompromised mice. Tumors were mechanically dissociated into small fragments (1 mm to 2 mm) with scalpels in phosphate buffered saline (PBS or RPMI) and centrifuged at 200×g for 5 minutes at room temperature in 50 mL centrifuge tubes. Samples were resuspended in 10 mL of cell dissociation reagent and enzymatically digested with mechanical agitation for 1 to 3 hours at 37° C., 5% CO2 to a single cell suspension. Ten mL of complete RPMI-1640 media was added to the cell mixture and pipetted up and down 4 to 5 times. The mixture was then passed through a 70 μm or 100 μm mesh strainer to remove undigested tumor. The filtrate was then centrifuged 200×g for 5 minutes at room temperature and resuspended in 20 mL complete RPMI-1640. This cell suspension was slowly layered onto 20 mL of room temperature Histopaque and centrifuged at 400×g for 15 minutes at room temperature without a brake. The interface was transferred to a new 50 mL centrifuge tube and 15 mL of complete RPMI-1640 was added. This suspension was centrifuged at 200×g at room temperature, and the resulting pellet was resuspended in 10 mL of complete PC-1 media, except for pancreatic tumors in which case Pancreatic Medium was used. Cells were diluted in Trypan blue, and viable cells that excluded the dye were counted. Only the larger, tumor cells were included in the cell count. Cells were diluted in complete PC-1 or Pancreatic media, as appropriate for the cells, and were plated at 15,000 to 20,000 cells per well in 100-135 μL in ultra-low attachment U-bottom plates.
(§4) Compound Addition: For these studies, a 10 mM stock of the DNA-PK inhibitor (Compound B-1 or Compound B-2) was made in DMSO and used to add to cells from most tumors with HP D300 Digital Dispenser (Tecan US, Morrisville, NC, USA), or diluted into the appropriate media (PC-1 or pancreatic media) as a 5-10× stock and added to cells (OVX001 and ENX001, 005). PC-1, pancreatic media, and chemotherapeutics were also added so that final well volume was 150 μL. Doxorubicin was made as DMSO stock of 1 or 10 mM and added to cells for most tumors with HP D300 Digital Dispenser, or diluted into PC-1 as 5-10× stock and added to cells (OVX001 and ENX001, 005). Cisplatin (cis-diammine platinum(II), dichloride) was prepared fresh to 10 mM in warm (60° C.) distilled water and diluted in PC-1 as a 5-10× stock. […] Different starting concentrations, dose ranges, and number of doses were used for each experiment based on the response data available at the time.
For bleomycin experiments, combinations with Compound B-1 at all concentrations were run in triplicate. A 6×3 matrix was designed on one plate, consisting of a 2-point concentration range of 0.73 μM and 2.2 μM Compound B-1 plus no treatment control, in 3 columns each of 6 wells. Bleomycin (plus ‘no treatment’ control) was added to 9 wells in rows of this plate. Similar 6×3 matrices were set up for additional agents with different starting concentrations for compound dilutions. For cisplatin experiments the starting concentration was 30 μM which was diluted 1:3. […] For doxorubicin hydrochloride experiments the starting concentration was 5 μM doxorubicin which was diluted 1:3. For gemcitabine experiments the starting concentration was 5 μM gemcitabine which was diluted 1:3. […]

[3] = tested on: primary human hepatocellular carcinoma (HCC) tumor; assay: TCA: Compound B-1 with doxorubicin hydrochloride, primary HCC tumor; conditions: tumor L090923, Liver
Description: as §1, §2
Tumor Chemosensitivity Assay (TCA): Primary tumor samples were grown and serially passaged in immunocompromised mice. Tumors were mechanically dissociated into small fragments (1 mm to 2 mm) with scalpels in phosphate buffered saline (PBS or RPMI) and centrifuged at 200×g for 5 minutes at room temperature in 50 mL centrifuge tubes. Samples were resuspended in 10 mL of cell dissociation reagent and enzymatically digested with mechanical agitation for 1 to 3 hours at 37° C., 5% CO2 to a single cell suspension. Ten mL of complete RPMI-1640 media was added to the cell mixture and pipetted up and down 4 to 5 times. The mixture was then passed through a 70 μm or 100 μm mesh strainer to remove undigested tumor. […] Cells were diluted in Trypan blue, and viable cells that excluded the dye were counted. […]

[4] = tested on: primary human ovarian tumors (dissociated cells); assay: Tumor Chemosensitivity Assay (TCA): Compound B-2 with doxorubicin, primary ovarian tumors, viability after 6 days, Bliss; design: Average Bliss score: scale not given here
Description: Specifically, one study described the combination of Compound B-2 and doxorubicin hydrochloride. In this study, a panel of primary human ovarian and endometrial tumors was dissociated and treated with Compound B-2 to determine the effectiveness of this selective DNA-PK inhibitor to enhance the activity of doxorubicin.
as §1, §2, §3, §4
For doxorubicin hydrochloride experiments, combinations with Compound B-2 at all concentrations were run in triplicate. A 6×3 matrix was designed on each plate: 0.73 μM and 2.2 μM Compound B-2, or 0.37 μM and 4.4 μM Compound B-2 on some tumors where additional cells were available, plus no treatment control, in 3 columns each of 6 wells. Doxorubicin hydrochloride (plus ‘no treatment’ control) was added to 9 wells in rows of this plate. […]

CNC(=O)c1ccnc2c([C@H](C)CNc3cc(-c4cnc(C)nc4)ncn3)cccc12 [Compound B-1]
tumors that showed antagonism ([1]; all TCA combinations with Compound B-1 (4/63)): 6%
combination treatments that showed additive effects ([1]; all TCA combinations with Compound B-1 (29/63)): 46%
combination treatments that demonstrated synergy or strong synergy ([1]; all TCA combinations with Compound B-1 (29/68 as printed)): 46%
tumors that showed synergy or additivity ([2]; 5 tumors): 100%
Average Bliss score ([2]; tumor ESX005, Esophageal): −1
Synergy/Additivity/Antagonism ([2]; tumor ESX005, Esophageal): Additive (Values between 5 and −5 are considered additive)
Average Bliss score ([2]; tumor ESX008, Esophageal): −2
Synergy/Additivity/Antagonism ([2]; tumor ESX008, Esophageal): Additive (Values between 5 and −5 are considered additive)
Average Bliss score ([2]; tumor GAX001, Gastric): 6
Synergy/Additivity/Antagonism ([2]; tumor GAX001, Gastric): Synergistic (greater than 5 are considered synergistic)
Average Bliss score ([2]; tumor GAX007, Gastric): 0
Synergy/Additivity/Antagonism ([2]; tumor GAX007, Gastric): Additive (Values between 5 and −5 are considered additive)
Average Bliss score ([2]; tumor GAX027, Gastric): 4
Synergy/Additivity/Antagonism ([2]; tumor GAX027, Gastric): Additive (Values between 5 and −5 are considered additive)
Average Bliss score [3]: 4

[2H]c1nc(C)nc([2H])c1-c1cc(NC[C@@H](C)c2cccc3c(C(=O)NC)ccnc23)ncn1 [Compound B-2]
tumors that showed synergy or additivity ([4]; 11 ovarian tumors): 100%
tumors that showed strong synergy ([4]; four of 11 ovarian tumors): 36%
Average Bliss score ([4]; tumor CTG-0252 (Ovarian)): 14
Synergy/Additivity/Antagonism ([4]; tumor CTG-0252 (Ovarian)): Strongly Synergistic (greater than 10 are considered strongly synergistic)
Average Bliss score ([4]; tumor CTG-0253 (Ovarian)): 6
Synergy/Additivity/Antagonism ([4]; tumor CTG-0253 (Ovarian)): Synergistic (greater than 5 are considered synergistic)
Average Bliss score ([4]; tumor CTG-0258 (Ovarian)): 9
Synergy/Additivity/Antagonism ([4]; tumor CTG-0258 (Ovarian)): Synergistic (greater than 5 are considered synergistic)
Average Bliss score ([4]; tumor CTG-0486 (Ovarian)): 5
Synergy/Additivity/Antagonism ([4]; tumor CTG-0486 (Ovarian)): Additive (Values between 5 and −5 are considered additive)
Average Bliss score ([4]; tumor CTG-0791 (Ovarian)): 14
Synergy/Additivity/Antagonism ([4]; tumor CTG-0791 (Ovarian)): Strongly Synergistic (greater than 10 are considered strongly synergistic)
Average Bliss score ([4]; tumor CTG-0947 (Ovarian)): 10
Synergy/Additivity/Antagonism ([4]; tumor CTG-0947 (Ovarian)): Synergistic (greater than 5 are considered synergistic)
Average Bliss score ([4]; tumor CTG-0992 (Ovarian)): 8
Synergy/Additivity/Antagonism ([4]; tumor CTG-0992 (Ovarian)): Synergistic (greater than 5 are considered synergistic)
Average Bliss score ([4]; tumor CTG-1166 (Ovarian)): 8
Synergy/Additivity/Antagonism ([4]; tumor CTG-1166 (Ovarian)): Synergistic (greater than 5 are considered synergistic)
Average Bliss score ([4]; tumor CTG-1301 (Ovarian)): 8
Synergy/Additivity/Antagonism ([4]; tumor CTG-1301 (Ovarian)): Synergistic (greater than 5 are considered synergistic)
Average Bliss score ([4]; tumor CTG-1423 (Ovarian)): 12
Synergy/Additivity/Antagonism ([4]; tumor CTG-1423 (Ovarian)): Strongly Synergistic (greater than 10 are considered strongly synergistic)
Average Bliss score ([4]; tumor OVX001 (Ovarian)): 11
Synergy/Additivity/Antagonism ([4]; tumor OVX001 (Ovarian)): Strongly Synergistic (greater than 10 are considered strongly synergistic)
